Measured values published in PMC9737137, “The Mitochondrial Protein MitoNEET as a Probe for the Allostery of Glutamate Dehydrogenase” (Molecules, 2022).
Values belong to the compound of their own block, whether it stands above or below them.

What was measured:
[1] = molecular target: T1, glutamate dehydrogenase (GDH) (Bos taurus, UniProt P00366); test: GDH kinetics, NAD(P)H formation at […] nm; percent activation (Figure 4B); type: biochemical
T1 construct: gene GLUD1

[2] = molecular target: T1, glutamate dehydrogenase (GDH); test: GDH kinetics, NAD(P)H formation at […] nm; fraction of activity; type: biochemical
mitoNEET = molecular target: T2, mitoNEET (Homo sapiens, UniProt Q9NZ45); test: radioligand competition assay (SPA nickel beads); type: binding
T2 construct: gene CISD1
T2 sequence (Q9NZ45 2-108): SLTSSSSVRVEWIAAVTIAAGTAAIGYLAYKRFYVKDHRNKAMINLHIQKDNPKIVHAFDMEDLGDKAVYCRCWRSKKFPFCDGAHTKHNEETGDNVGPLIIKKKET

[3] = molecular target: T1, glutamate dehydrogenase (GDH); test: GDH kinetics, NAD(P)H formation at […] nm; fraction of activity with NAD added first; type: biochemical
[4] = molecular target: T1, glutamate dehydrogenase (GDH); test: GDH kinetics, NAD(P)H formation at […] nm; percent activation with NADP; type: biochemical
[5] = molecular target: T1, glutamate dehydrogenase (GDH); test: GDH kinetics, NAD(P)H formation at […] nm; fraction of activity (Figure 1C); type: biochemical

T1 sequence (P00366 58-558, one chain of several): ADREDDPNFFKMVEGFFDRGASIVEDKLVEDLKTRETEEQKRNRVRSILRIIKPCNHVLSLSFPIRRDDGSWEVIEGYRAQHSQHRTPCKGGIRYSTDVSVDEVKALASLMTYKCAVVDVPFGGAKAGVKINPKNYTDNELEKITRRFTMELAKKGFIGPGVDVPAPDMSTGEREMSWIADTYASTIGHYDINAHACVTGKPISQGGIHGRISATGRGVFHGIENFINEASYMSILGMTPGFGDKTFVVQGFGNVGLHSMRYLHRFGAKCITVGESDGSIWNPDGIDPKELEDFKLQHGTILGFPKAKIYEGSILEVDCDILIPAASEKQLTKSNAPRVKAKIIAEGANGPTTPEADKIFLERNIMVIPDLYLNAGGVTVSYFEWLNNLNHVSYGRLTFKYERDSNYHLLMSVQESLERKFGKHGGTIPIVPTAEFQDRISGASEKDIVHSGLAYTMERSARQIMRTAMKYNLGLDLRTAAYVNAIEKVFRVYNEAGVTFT

SMILES: CC(C)C[C@H](N)C(=O)O [leucine]
GDH kinetics, NAD(P)H formation at 340 nm; percent activation (Figure 4B) [1]: addition of mitoNEET after the addition of leucine gave no impact in percent activation over the addition of leucine alone

GDH kinetics, NAD(P)H formation at 340 nm; fraction of activity [2]: 0.44 ± 0.04 fraction of activity
IC50 (mitoNEET): 304 nM
SMILES: CCCCCCCCCCCCCCCC(=O)SCCNC(=O)CCNC(=O)[C@H](O)C(C)(C)COP(=O)(O)OP(=O)(O)OC[C@H]1O[C@@H](n2cnc3c(N)ncnc32)[C@H](O)[C@@H]1OP(=O)(O)O [palmitoyl-CoA]

SMILES: O=C(O[C@@H]1Cc2c(O)cc(O)cc2O[C@@H]1c1cc(O)c(O)c(O)c1)c1cc(O)c(O)c(O)c1 [EGCG]
GDH kinetics, NAD(P)H formation at 340 nm; fraction of activity with NAD added f [3]: 0.35 ± 0.02 fraction of activity

% activation [4]: 67 % activation
SMILES: Nc1ncnc2c1ncn2[C@@H]1O[C@H](COP(=O)(O)OP(=O)(O)O)[C@@H](O)[C@H]1O [ADP]

SMILES: Nc1nc2c(ncn2[C@@H]2O[C@H](COP(=O)(O)OP(=O)(O)OP(=O)(O)O)[C@@H](O)[C@H]2O)c(=O)[nH]1 [GTP]
GDH kinetics, NAD(P)H formation at 340 nm; fraction of activity (Figure 1C) [5]: under only one assay condition the rescue of GDH activity from GTP inhibition by mitoNEET could be observed
